Columns and labels:
[1] = Aqueous stability assay in PBS (DPBS), HPLC; assay type: physicochemical; settings: 1 mg/mL, room temperature, parent remaining at 2 hr, read-out: PBS (% REM at 2 hr)
Method: Aqueous stability experiments were performed on an Agilent 1100 HPLC equipped with an Agilent 1200 autosampler. HPLC grade solvents were exclusively used during analysis, with acetonitrile being purchased from Sigma Aldrich, and water and formic acid provided by Fisher Scientific. Sample solutions were prepared in 2.0 mL large opening RAM™ vials from Chemglass using DPBS as the aqueous medium.
Tested compounds were dissolved in DPBS at a standard concentration of 1 mg/mL. All mixtures were then sonicated for 5 min or stirred until complete dissolution was achieved. Any precipitate observed in sample solutions was filtered with a PTFE syringe filter prior to analysis. Immediately after sample preparation, injection by the HPLC autosampler was performed, which was recorded as the initial time point (t=0 min). Samples were then kept in the autosampler at room temperature and injected at designated intervals without additional filtration or sample modification. Next, the area of the parent peak in each chromatogram was determined by automated integration in the Agilent ChemStation software. Pseudo first-order half-lives were then ascertained by calculating the percent of the parent compound remaining after each time point, Plots of time (x-axis) vs. the natural logarithm of percent parent remaining (y-axis) were subsequently constructed to determine the slope. Finally, the aqueous stability was evaluated using the following equation: […]
The HPLC conditions were as follows: injection volume, 1 μL; column temperature: 40° C.; detector: 254 nm; stationary phase: Zorbax Eclipse XDB-C18 (4.6×150 mm, 5 μm); flow rate: 1 mL/min; mobile phase: 80-95% acetonitrile in H2O (0.1% formic acid).

Plasma stability assay = assay type: in vitro ADME; settings: human plasma, 37° C., read-out: Human plasma t1/2
Method: (§1) 3 μM test compound was incubated in Human or Mouse plasma (BioIVT) at 37° C. with aliquots (100 μL) removed at 0, 15, 30, 60, 120, and 240 minutes. Enzymatic activity was quenched at each time point with the addition of 200 μL of acetonitrile containing 2 μM internal standard (d5-7-ethoxy coumarin), immediately vortexed and centrifuged at 15,000 rpm for 25 min at 4° C. Supernatants were transferred to autosampler vials for LC-MS/MS analysis. LC-MS/MS analysis was performed using Agilent Infinity II 1260 HPLC coupled to a G6460C QQQ MS. Half-lives were determined by plotting ln of % test compound remaining versus time and performing linear regression to determine the slope. Slope=−k and t½=0.693/k for first order kinetics.

Aqueous solubility = settings: water
GABAA α1β2γ2 = GABAA α1β2γ2 (Homo sapiens, UniProt P14867+P47870); experiment: GABAA electrophysiology, PAM mode, SyncroPatch automated patch clamp; assay type: cell-based; settings: for Emax: read-out: GABAA α1β2γ2 Maximum Potentiation
Method: (§2) The SyncroPatch assay is performed at room temperature. A fast application protocol is used, in which the ligand is rapidly applied and then removed from the cell. To test for PAM mode, the agonist (GABA EC20) is applied three times as a control and to show reproducibility, followed by a minimum 2-minute pre-incubation of client compound and then re-application of agonist (GABA EC20) in the presence of client compound. Finally, a saturating concentration of agonist is applied. A steady-state voltage pulse at −80 mV is applied throughout the assay. Compounds are prepared as 10 mM DMSO stocks.
(§3) Automated patch clamp-recordings are performed using the SyncroPatch 384i. The voltage protocol generation and data collection are performed with Patch Controller 384 V2.2.1 and Data Controller V2.3.0. The PAM activity is calculated using the following equation, [(Icomp/Ireference)−1], where Icomp is the current amplitude in the presence of the compound and Ireference is the current amplitude in the presence of GABA alone. This builds an activation concentration-response curve (CRC), where <0.2 represents no PAM activity and >0.2 represents PAM activity. If a “bell-shape curve” is observed at the higher concentrations, showing a reduction in activity in comparison to previous concentrations, then to allow for a more accurate curve fit, these concentrations are removed from the graphs where necessary and noted in the results table.

GABAA α4β3δ = GABAA α4β3δ (Homo sapiens, UniProt P28472+P48169); experiment: as above; assay type: cell-based; settings: for Emax: read-out: GABAA α4β3δ Maximum Potentiation; for selectivity for GABAA receptor containing the delta (δ) subunit compared to a GABAA receptor without it: α4β3δ vs α1β2γ2, in words
Method: as §2, §3

[2] = Microsomal stability assay; assay type: in vitro ADME; settings: Human Liver Microsomes, 37° C., unit in cell hr (head: min), read-out: HLM t1/2
Method: as §1, with “Liver Microsomes (Xenotech)” for “or Mouse plasma (BioIVT)”, “[…])” for “μL)”, “0, 5, 10,” for “0,”, “15,” for “15, 30, 60, 120,”, “30” for “240”

GABAA α4β3δ, sequence (P48169 36-554): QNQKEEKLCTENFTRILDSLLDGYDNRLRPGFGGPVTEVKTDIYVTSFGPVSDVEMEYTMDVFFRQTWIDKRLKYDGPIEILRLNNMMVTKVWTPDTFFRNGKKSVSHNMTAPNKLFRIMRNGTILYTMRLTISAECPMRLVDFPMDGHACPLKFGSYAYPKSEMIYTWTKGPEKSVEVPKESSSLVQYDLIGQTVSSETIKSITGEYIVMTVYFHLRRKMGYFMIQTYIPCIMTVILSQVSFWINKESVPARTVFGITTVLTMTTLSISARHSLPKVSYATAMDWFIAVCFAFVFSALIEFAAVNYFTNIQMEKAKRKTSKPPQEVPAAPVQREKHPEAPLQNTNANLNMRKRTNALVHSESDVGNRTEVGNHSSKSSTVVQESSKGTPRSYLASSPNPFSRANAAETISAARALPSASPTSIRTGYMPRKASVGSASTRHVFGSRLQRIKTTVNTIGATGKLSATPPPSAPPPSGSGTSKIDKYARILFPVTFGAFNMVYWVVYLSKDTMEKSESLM
GABAA α4β3δ, sequence (P28472 26-473): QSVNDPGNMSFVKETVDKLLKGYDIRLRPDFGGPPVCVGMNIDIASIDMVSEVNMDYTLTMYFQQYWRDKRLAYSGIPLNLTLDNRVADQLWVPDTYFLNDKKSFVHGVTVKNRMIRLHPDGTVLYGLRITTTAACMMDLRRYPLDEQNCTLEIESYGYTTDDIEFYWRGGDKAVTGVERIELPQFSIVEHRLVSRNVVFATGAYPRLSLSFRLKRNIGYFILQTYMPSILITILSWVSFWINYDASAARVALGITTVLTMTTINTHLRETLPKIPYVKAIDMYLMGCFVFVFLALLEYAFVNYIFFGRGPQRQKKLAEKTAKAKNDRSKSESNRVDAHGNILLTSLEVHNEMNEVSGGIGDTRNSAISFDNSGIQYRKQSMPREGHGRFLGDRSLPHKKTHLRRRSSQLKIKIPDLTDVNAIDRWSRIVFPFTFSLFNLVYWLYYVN
GABAA α4β3δ, sequence (O14764 17-452 partner limits assumed): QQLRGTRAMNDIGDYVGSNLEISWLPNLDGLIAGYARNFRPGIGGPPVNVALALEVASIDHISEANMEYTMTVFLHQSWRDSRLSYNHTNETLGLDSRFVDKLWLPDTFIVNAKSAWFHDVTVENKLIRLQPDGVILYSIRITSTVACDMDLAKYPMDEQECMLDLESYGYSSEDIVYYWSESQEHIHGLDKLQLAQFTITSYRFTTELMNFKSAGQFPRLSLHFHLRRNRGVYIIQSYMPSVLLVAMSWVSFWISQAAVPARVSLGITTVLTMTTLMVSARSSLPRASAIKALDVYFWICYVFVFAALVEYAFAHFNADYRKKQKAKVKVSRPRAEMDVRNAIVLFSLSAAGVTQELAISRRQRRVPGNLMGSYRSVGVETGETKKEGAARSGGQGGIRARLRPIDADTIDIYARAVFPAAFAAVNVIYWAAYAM
GABAA α1β2γ2, sequence (P14867 28-456): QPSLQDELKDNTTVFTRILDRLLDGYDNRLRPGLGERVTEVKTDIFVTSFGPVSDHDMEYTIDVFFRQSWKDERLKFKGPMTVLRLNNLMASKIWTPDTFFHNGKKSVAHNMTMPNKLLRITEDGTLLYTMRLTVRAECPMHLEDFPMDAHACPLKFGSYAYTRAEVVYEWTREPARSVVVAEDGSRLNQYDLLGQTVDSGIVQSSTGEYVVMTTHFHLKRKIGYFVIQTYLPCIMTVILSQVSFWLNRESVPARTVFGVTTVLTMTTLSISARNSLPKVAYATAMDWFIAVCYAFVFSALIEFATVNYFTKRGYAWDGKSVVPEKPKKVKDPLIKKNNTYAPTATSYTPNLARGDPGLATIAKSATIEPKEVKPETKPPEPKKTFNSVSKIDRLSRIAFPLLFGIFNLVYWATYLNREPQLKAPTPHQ
GABAA α1β2γ2, sequence (P47870 25-512 limits assumed): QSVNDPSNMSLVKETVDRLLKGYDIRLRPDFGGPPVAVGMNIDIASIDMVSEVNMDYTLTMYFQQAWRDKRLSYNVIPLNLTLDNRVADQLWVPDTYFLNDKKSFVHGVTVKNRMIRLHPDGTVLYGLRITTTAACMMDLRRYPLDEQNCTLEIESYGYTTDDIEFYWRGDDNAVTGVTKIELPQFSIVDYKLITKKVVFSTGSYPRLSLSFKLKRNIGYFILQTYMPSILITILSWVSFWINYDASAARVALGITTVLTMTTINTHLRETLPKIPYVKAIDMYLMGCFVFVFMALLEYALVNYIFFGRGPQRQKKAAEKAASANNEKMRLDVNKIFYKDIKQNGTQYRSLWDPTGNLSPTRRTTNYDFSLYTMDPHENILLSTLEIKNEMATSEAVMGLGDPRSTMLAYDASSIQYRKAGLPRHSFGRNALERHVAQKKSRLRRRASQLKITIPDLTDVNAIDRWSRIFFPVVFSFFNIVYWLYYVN
GABAA α1β2γ2, sequence (P18507 40-475 partner): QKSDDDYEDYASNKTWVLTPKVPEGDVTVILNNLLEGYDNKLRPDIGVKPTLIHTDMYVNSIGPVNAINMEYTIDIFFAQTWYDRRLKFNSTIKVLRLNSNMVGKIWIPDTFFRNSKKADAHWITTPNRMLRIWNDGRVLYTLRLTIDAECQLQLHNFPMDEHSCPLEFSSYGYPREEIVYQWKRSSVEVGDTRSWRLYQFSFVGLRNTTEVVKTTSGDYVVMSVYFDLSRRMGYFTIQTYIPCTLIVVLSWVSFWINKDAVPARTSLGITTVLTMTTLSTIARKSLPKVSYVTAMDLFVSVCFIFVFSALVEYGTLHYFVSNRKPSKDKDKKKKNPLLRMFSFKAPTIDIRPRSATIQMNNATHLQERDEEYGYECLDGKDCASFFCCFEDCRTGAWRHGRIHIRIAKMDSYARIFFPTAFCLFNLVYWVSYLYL

CNCCN(C(=O)O/N=C(\C)[C@H]1CC[C@H]2[C@@H]3CCC4C[C@](C)(O)CC[C@]4(C)[C@H]3CC[C@]12C)C1CCC1.Cl (stereo partly drawn) [GP-GAN- 005 (20c), (E)-1-((3R,8R,9S,10S,13S,14S,17S)-3-hydroxy-3,10,13-trimethylhexadecahydro-1H-cyclopenta[a]phenanthren-17-yl)ethan-1-one O-(cyclobutyl(2-(methylamino)ethyl)carbamoyl) oxime hydrochloride]
remaining at 2 h [1]: 43%
half-life at 3 µM (Plasma stability assay): 39 min
solubility (Aqueous solubility): > 750 µM

CNCCN(C)C(=O)O/N=C(\C)[C@H]1CC[C@H]2[C@@H]3CCC4C[C@](C)(O)CC[C@]4(C)[C@H]3CC[C@]12C.Cl (stereo partly drawn) [GP-GAN- 002 (20a), (E)-1-((3R,8R,9S,10S,13S,14S,17S)-3-hydroxy-3,10,13-trimethylhexadecahydro-1H-cyclopenta[a]phenanthren-17-yl)ethan-1-one O-(methyl(2-(methylamino)ethyl)carbamoyl) oxime hydrochloride]
remaining at 2 h [1]: 66%
half-life at 3 µM (Plasma stability assay): 55 min
solubility (Aqueous solubility): > 750 µM

C/C(=N\OC(=O)N(C)C[C@@H]1CCCN1)[C@H]1CC[C@H]2[C@@H]3CCC4C[C@](C)(O)CC[C@]4(C)[C@H]3CC[C@]12C.Cl (stereo partly drawn) [GP-GAN- 003 (20b), (E)-1-((3R,8R,9S,10S,13S,14S,17S)-3-hydroxy-3,10,13-trimethylhexadecahydro-1H-cyclopenta[a]phenanthren-17-yl)ethan-1-one O-(methyl(((S)-pyrrolidin-2-yl)methyl)carbamoyl) oxime hydrochloride]
remaining at 2 h [1]: 10%
half-life at 3 µM (Plasma stability assay): 6 min
solubility (Aqueous solubility): > 750 µM

C/C(=N\OCOP(=O)(O)O)[C@H]1CC[C@H]2[C@@H]3CCC4C[C@](C)(O)CC[C@]4(C)[C@H]3CC[C@]12C (stereo partly drawn) [GP-GAN- 007 (22), 1,3-Dihydroxy-2-(hydroxymethyl)propan-2-aminium ((((E)-1-((3R,8R,9S,10S,13S,14S,17S)-3-hydroxy-3,10,13-trimethylhexadecahydro-1H-cyclopenta[a]phenanthren-17-yl)ethylidene)amino)oxy)methyl hydrogen phosphate]
solubility (Aqueous solubility): > 1000 µM

C/C(=N\O)[C@H]1CC[C@H]2[C@@H]3CC[C@@H]4C[C@](C)(O)CC[C@@H]4[C@H]3CC[C@]12C [LEH- NEURO- 007 (30), (E)-1-((3R,5R,8R,9R,10S,13S,14S,17S)-3-hydroxy-3,13-dimethylhexadecahydro-1H-cyclopenta[a]phenanthren-17-yl)ethan-1-one oxime]
half-life at 3 µM (Plasma stability assay; unit in cell hr (head: min)): > 240 min
EC50 (GABAA α1β2γ2): 692 nM
Emax (GABAA α1β2γ2): 121%
EC50 (GABAA α4β3δ): 383 nM
Emax (GABAA α4β3δ): 510%
selectivity for GABAA receptor containing the delta (δ) subunit compared to a GABAA receptor without it (GABAA α4β3δ): selectively potentiate

CNCCN(C(=O)O/N=C(\C)[C@H]1CC[C@H]2[C@@H]3CCC4C[C@](C)(O)CC[C@]4(C)[C@H]3CC[C@]12C)C(C)C.Cl (stereo partly drawn) [GP-GAN- 004 (20d), (E)-1-((3R,8R,9S,10S,13S,14S,17S)-3-hydroxy-3,10,13-trimethylhexadecahydro-1H-cyclopenta[a]phenanthren-17-yl)ethan-1-one O-(isopropyl(2-(methylamino)ethyl)carbamoyl) oxime hydrochloride]
remaining at 2 h [1]: 52%
half-life at 3 µM (Plasma stability assay): 28 min
solubility (Aqueous solubility): > 750 µM

C/C(=N\O)[C@@]1(F)CC[C@H]2[C@@H]3CC[C@H]4C[C@](C)(O)CC[C@]4(C)[C@H]3CC[C@@]21C [GP-GAN- 006 (15), (E)-1-((3R,8R,9S,10S,13S,14S,17R)-17-fluoro-3-hydroxy-3,10,13-trimethylhexadecahydro-1H-cyclopenta[a]phenanthren-17-yl)ethan-1-one oxime]
remaining at 2 h [1]: 61%
half-life at 3 µM (Plasma stability assay): 3 min

C/C(=N\O)[C@H]1CC[C@H]2[C@@H]3CC[C@H]4C[C@](C)(O)CC[C@]4(C)[C@H]3CC[C@]12C [GP-GAN- 001 (10), (E)-1-((3R,8R,9S,10S,13S,14S,17S)-3-hydroxy-3,10,13-trimethylhexadecahydro-1H-cyclopenta[a]phenanthren-17-yl)ethan-1-one oxime]
half-life at 3 µM [2]: > 120 min
half-life at 3 µM (Plasma stability assay; unit in cell hr (head: min)): > 240 min
EC50 (GABAA α1β2γ2): 1620 nM
Emax (GABAA α1β2γ2): 133%
EC50 (GABAA α4β3δ): 1000 nM
Emax (GABAA α4β3δ): 533%

CC(=O)[C@H]1CC[C@H]2[C@@H]3CC[C@H]4C[C@](C)(O)CC[C@]4(C)[C@H]3CC[C@]12C [Ganaxalone, Ganaxolone, reference compound]
EC50 (GABAA α1β2γ2): 540 nM
EC50 (GABAA α4β3δ): 879 nM

C/C(=N\O)[C@H]1CC[C@H]2[C@@H]3CCC4C[C@](C)(O)CC[C@]4(C)[C@H]3CC[C@]12C (stereo partly drawn) [compound 10]
selectivity for GABAA receptor containing the delta (δ) subunit compared to a GABAA receptor without it (GABAA α4β3δ): selectively potentiate

Reference: patent US20260285897A1, “Neurosteroids and Prodrugs Thereof” (Emory University, priority 2023, published 2026)
